Laboratory results: patent US20250127728A1, “Constrained Ionizable Cationic Lipids and Lipid Nanoparticles” (CAPSTAN THERAPEUTICS, INC., priority 2023, published 2025)
Entries after “also recorded” stand apart in the source; their conditions may differ.

What was measured:
[1] = tested on: liver Kupffer cells (CD45+/CD11+ liver cells); test: in vivo transfection with mCherry mRNA by CD5-targeted tLNP, liver Kupffer cells; settings: C57BL/6 mice, 10 μg mRNA tail vein, 24 hours
Method: (§1) To assess the ability of a constrained ionizable cationic lipids to facilitate in vivo transfection of T cells with mCherry mRNA (SEQ ID NO. 5), tLNP incorporating CICL-207, or for comparison, CICL-1, and conjugated to an anti-mouse CD5 antibody were prepared and administered to C57BL/6 mice. The tLNP comprised either CICL-207 or CICL-1, DSPC, cholesterol, either DMG-PEG(2000) or DSG-PEG(2000), and DSPE-PEG(2000)-maleimide in the proportions indicated in Table 7 (below) and an N/P ratio of 6. CICL-1 has the structure:
Briefly, to prepare the tLNP, N1-methylpseudouridine (m1ψ)-substituted mCherry mRNA was encapsulated in LNP using a self-assembly process in which an aqueous solution of mRNA at pH 3.5 was rapidly mixed with a solution of lipids dissolved in ethanol, then followed by stepwise phosphate and Tris buffer dilution and tangential flow filtration (TFF) purification. Then an anti-CD5 mAb was conjugated to the above LNP to generate tLNP. […]
Further ionizable cationic lipids according to Formula M2 were incorporated into tLNP and the ability of the tLNP to transfect cells in vivo assessed essentially as described in the preceding Example. Their physicochemical properties as determined in various experiments are compiled in Table 10.

[2] = tolerability of F50 LNP: liver enzymes, acute phase proteins, cytokines; assay type: in vivo, Sprague Dawley rats; settings: rats, intravenous, up to 8 mg/kg
Method: A study in which various dosages of undecorated F50 LNP encapsulating mCherry mRNA (up to 8 mg/kg) were administered intravenously to 8-week-old male Sprague Dawley rats (Charles River Laboratories). Liver enzymes in serum were determined (FIGS. 12A-B). Acute phase protein (FIGS. 12C-E) and cytokine levels (FIGS. 12F-H) were assessed in plasma by Luminex assay.

[3] = tested on: luciferase mRNA expression in liver, spleen and other organs; test: luciferase biodistribution (organ bioluminescence) of LNP and CD5-targeted tLNP; assay type: in vivo, C57Bl/6 mice; settings: 2 μg mRNA/animal
Method: LNP and tLNP with the F9 and F50 composition were prepared as example 66 described, except the payload consisted of mRNA encoding luciferase (SEQ ID NO. 4).
Eight-week-old female C57BI)6 mice (Charles River Laboratories) were intravenously injected with […] or F50 LNPs or CD5-targeted tLNPs encapsulating mRNA encoding luciferase at a dose of 2 μg mRNA/animal via the tail vein. At 6 hours post-injection, prone and supine bioluminescence images were collected from all mice (FIGS. 8A-8B). Following whole-animal imaging, the mice were sacrificed, and the following tissues were collected: liver, spleen, lung, kidneys (both), heart, bone marrow (femur), lymph nodes (left and right inguinal), and brain. Tissues were placed into luciferin pre-filled black polystyrene plates with spacing between tissues, and bioluminescent images were collected at 6 hours and 24 hours post-injection (FIGS. 8C-8D, respectively).

[4] = tolerability of LNP-containing compositions in rat (general statements); settings: tLNP, single doses
splenic T cells = test: in vivo transfection with mCherry mRNA by CD5-targeted tLNP, splenic T cells; settings: C57BL/6 mice, in words
Method: as §1
Briefly, to prepare the tLNP, N1-methylpseudouridine (m1ψ)-substituted mCherry mRNA was encapsulated in LNP using a self-assembly process in which an aqueous solution of mRNA at pH 3.5 was rapidly mixed with a solution of lipids dissolved in ethanol, then followed by stepwise phosphate and Tris buffer dilution and tangential flow filtration (TFF) purification. Then an anti-CD5 mAb was conjugated to the above LNP to generate tLNP. Purified rat anti-mouse CD5 antibody, clone 53-7.3 (BioLegend), was coupled to LNP via N-succinimidyl S-acetylthioacetate (SATA)-maleimide conjugation chemistry. Briefly, LNPs with DSPE-PEG(2000)-maleimide incorporated were formulated and stored at 4° C. on the day of conjugation. The antibody was modified with SATA (Sigma-Aldrich) to introduce sulfhydryl groups at accessible lysine residues allowing conjugation to maleimide. SATA was deprotected using 0.5 M hydroxylamine followed by removal of the unreacted components by G-25 Sephadex Quick Spin Protein columns (Roche Applied Science, Indianapolis, IN). The reactive sulfhydryl group on the antibody was then conjugated to maleimide moieties on the LNPs using thioether conjugation chemistry. Purification was performed using Sepharose CL-4B gel filtration columns (Sigma-Aldrich). tLNPs (LNPs conjugated with a targeting antibody) were frozen at −80° C.
The mice were administered tLNPs containing 10 μg of mRNA by tail vein injection and tissue was harvested 24 hours later. […] These same trends have been observed with tLNP comprising CICL-1 as the ionizable lipid (data not shown). The tLNP comprising 58% ionizable cationic lipid had similarly low transfection rates (<4%) for CD45^− liver cells (hepatocytes)(FIG. 1B). […]

**Q.** For `CCCCCCCCC(=O)OCC(COC(=O)CCCCCCCC)CC(=O)OC[C@@H]1C[C@@H](OC(=O)CC(COC(=O)CCCCCCCC)COC(=O)CCCCCCCC)CN1C(=O)OCCN(C)C` [CICL-207, 2-(2-(((2S,4R)-1-((2-(dimethylamino)ethoxy)carbonyl)-4-((4-(nonanoyloxy)-3((nonanoyloxy)methyl)butanoyl)oxy)pyrrolidin-2-yl)methoxy)-2-oxoethyl)propane-1,3-diyl dinonanoate], which “transfection rate for liver Kupffer cells (CD45+/CD11+)” value [1] is on record?
**A.** The value was “similarly low levels”.

**Q.** And the tolerability [2]?
**A.** Its tolerability is “well tolerated”.

**Q.** And the “bioluminescence in non-target organs” value [3]?
**A.** The value was “generally producing the least bioluminescence”.

**Q.** What about the “single dose generally well tolerated” value [4] of the same compound?
**A.** Its value is “at least 8 mg/kg”.

**Q.** And the “effect of ionizable cationic lipid content (50%, 58%, 62%, 65%) on transfection rate” value (splenic T cells)?
**A.** Its value is “greater for CICL-207 than for CICL-225 in splenic T cells; also recorded: decreased performance”.

**Q.** And the “performance of tLNP: transfection rate and expression level (MESF)” value (splenic T cells)?
**A.** Its value is “best performing composition; also recorded: somewhat more desirable transfection rates”.
